# Measured values from PMC11397727, “Fast Screening of Tyrosinase Inhibitors in Coreopsis tinctoria Nutt. by Ligand Fishing Based on Paper-Immobilized Tyrosinase” (Molecules, 2024).
# Target: T1, Mushroom Tyrosinase (TYR) (Agaricus bisporus, UniProt C7FF04)
# T1 construct: gene PPO3
# Test: colorimetric L-Dopa oxidation assay, single-concentration inhibition at […]; also retrieved by ligand fishing on paper-immobilized tyrosinase
# Format: biochemical
# T1 sequence (C7FF04 2-392): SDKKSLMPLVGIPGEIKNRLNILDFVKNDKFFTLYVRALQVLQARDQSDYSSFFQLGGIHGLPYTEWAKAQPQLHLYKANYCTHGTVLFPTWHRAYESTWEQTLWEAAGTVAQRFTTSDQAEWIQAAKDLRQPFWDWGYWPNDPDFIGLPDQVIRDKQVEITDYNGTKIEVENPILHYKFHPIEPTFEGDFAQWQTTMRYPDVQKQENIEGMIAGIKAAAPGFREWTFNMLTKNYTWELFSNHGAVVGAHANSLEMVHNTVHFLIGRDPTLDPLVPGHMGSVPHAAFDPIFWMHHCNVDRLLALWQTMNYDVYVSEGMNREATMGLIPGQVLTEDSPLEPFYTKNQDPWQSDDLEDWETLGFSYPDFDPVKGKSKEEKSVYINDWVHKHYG
smiles,measurement,value
"O=C(/C=C/c1ccc(O)c(O)c1)c1ccc(O[C@@H]2O[C@H](CO)[C@@H](O)[C@H](O)[C@H]2O)c(O)c1O [compound 2, marein]",inhibition at 25 µM,29.4%
